The source of these data is PMC3539664, “Convergent synthesis and evaluation of ^18F-labeled azulenic COX2 probes for cancer imaging” (Frontiers in Oncology, 2013).

Data set [1] can be described thus: Biodistribution by gamma counting of tissues after imaging. Format: in vivo. The note with it: non-fasted tumor-bearing mice (n = 3), 150 min post injection (Figure 5). From the text: After the imaging session, the mice were euthanized and hearts, muscles, blood, livers, spleens, kidneys, stomachs, brains, intestines, tumors, and lungs were retrieved. The tissues were weighed and assessed for ^18F radioactivity using a gamma counter (CRC-15W, Capintec, Ramsey, NJ, USA).

The next data set deals with C57MG tumors. The data set can be described thus: In vivo microPET/CT imaging of COX2 in tumor-bearing mouse model. Further details: species or system mice. The protocol: The experimental protocol for animal imaging was approved by the Vanderbilt Medical Center Institutional Animal Care and Use Committee. Nude mice 6–8 weeks of age (n = 8, from Jackson Laboratory, Bar Harbor, ME, USA) were implanted subcutaneously under anesthesia (isoflurane mixed […]) with 1.0 × 10^6 C57MG cells in the mammary fat pad. The progress of tumor growth was monitored via every-other-day measurement of tumor size and animal weight. When the tumors reached approximately 4 mm in diameter, in vivo PET imaging was performed.
Positron emission tomography imaging was performed using the microPET Focus 220 (Siemens Pre-clinical, Knoxville, TN, USA) in a static acquisition mode for 30 min at 60, 120, and 150 min after injection of ^18F-COX2 probe 13 (150–200 μCi, 100–130 μL) into awake, non-fasted mice (n = 8) via the tail vein. To obtain whole-body scans, mice were placed in a supine position. The data were acquired in a 3-D mode with an axial span of approximately 8 cm. During the scanning, the animals were anesthetized using isoflurane and the temperature inside the scanner was maintained at 30°C using a pad connected to a circulating warm water bath. After PET imaging, a CT image was acquired using the microCAT II (Siemens Pre-clinical, Knoxville, TN, USA) using the same animal holder with the subjects maintained under anesthesia throughout, and then the mice were immediately euthanized upon completion of the CT scan. PET images were reconstructed using the iterative MAP reconstruction algorithm with 18 iterations and a beta smoothing value of 0.001 into 128 × 128 × 95 slices with a voxel size of 0.475 mm × 0.475 mm × 0.796 mm. The PET and CT images were co-registered using the imaging tool AMIDE ([Loening and Gambhir, 2003]).

Molecules are shown by their SMILES. Entries after “also recorded” stand apart in the source; their conditions may differ.

As for `Cc1csc(Cc2c3cccccc-3c(C(=O)c3ccc([18F])cc3)c2C)n1` [compound 13], in data set [1], the “Biodistribution: tissue uptake (% injection dose/g tissue)” value is reported as “the probe accumulated in the tumor; also recorded: highest uptake was detected in the liver, followed by the intestine”. In addition, the “Hepatic uptake of the probe (PET)” value in the data set on C57MG tumors (non-fasted C57MG tumor-bearing mice, i.v., PET imaging) is on record as “predominant hepatic uptake”. Besides, the “Bone signal / in vivo defluorination (PET)” value in the data set with C57MG tumors (non-fasted C57MG tumor-bearing mice, i.v., up to 2.5 h post injection) is on record as “negligible signal in the bone; also recorded: no defluorination of the probe in vivo”. In addition, in the data set with C57MG tumors (non-fasted nude mice with C57MG mammary fat pad tumors, i.v. tail vein, static whole-body scan 150 min after administration, vs background p < 0.05), the “Tumor accumulation and retention of the probe (PET, PET/CT)” value is reported as “significant accumulation in the tumor”.
